Measured values reported in the supplement of paper PMC10307832.

How the values were obtained:
Experiment in all cases: relative viability (nuclei count vs DMSO), 5 days (fraction); higher = more cells survive
[1] = compound: C1CN(CCN1)C2=CC=C(C=C2)C3=CN4C(=C(C=N4)C5=CC=NC6=CC=CC=C56)N=C3 [DM3189] + Cc1cc(Nc2cc(N3CCN(C)CC3)nc(Sc3ccc(NC(=O)C4CC4)cc3)n2)n[nH]1 [Tozasertib] (partner 0.1 µM)
In short: (§1)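 Each reported value is a median over duplicate plates. It expresses relative viability: treated-well nuclei count divided by vehicle-well nuclei count. Lung cancer cell lines in 1536-well plates were dosed by pin tool a day after seeding, alone with one drug or with a fixed anchor-drug dose plus five library-drug doses (not always all listed) in √10 steps, and nuclei were counted after 5 days.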

[2] = compound: C1CN(CCN1)C2=CC=C(C=C2)C3=CN4C(=C(C=N4)C5=CC=NC6=CC=CC=C56)N=C3 [DM3189] + COc1cccc2cc(-c3nc([C@H]4CC[C@H](C(=O)O)CC4)n4ncnc(N)c34)[nH]c12 [OSI-027] (partner 0.5 µM)
In short: as §1

[3] = compound: C1CN(CCN1)C2=CC=C(C=C2)C3=CN4C(=C(C=N4)C5=CC=NC6=CC=CC=C56)N=C3 [DM3189] + Nc1nc2[nH]cc(CCc3ccc(C(=O)N[C@@H](CCC(=O)O)C(=O)O)cc3)c2c(=O)[nH]1 [Pemetrexed] (partner 0.2 µM)
In short: as §1

[4] = compound: C1CN(CCN1)C2=CC=C(C=C2)C3=CN4C(=C(C=N4)C5=CC=NC6=CC=CC=C56)N=C3 [DM3189] + CC(C)C[C@H](NC(=O)[C@H](Cc1ccccc1)NC(=O)c1cnccn1)B(O)O [Bortezomib] (partner 0.002 µM)
In short: as §1

[5] = compound: C1CN(CCN1)C2=CC=C(C=C2)C3=CN4C(=C(C=N4)C5=CC=NC6=CC=CC=C56)N=C3 [DM3189] + CC(=O)c1c(C)c2cnc(Nc3ccc(N4CCNCC4)cn3)nc2n(C2CCCC2)c1=O [Palbociclib] (partner 0.5 µM)
In short: as §1

Cell Line | relative viability ([1]; first compound 0.08 µM) | relative viability ([1]; first compound 0.253 µM) | relative viability ([1]; first compound 0.8 µM) | relative viability ([1]; first compound 2.53 µM) | relative viability ([2]; first compound 0.08 µM) | relative viability ([2]; first compound 0.253 µM) | relative viability ([2]; first compound 0.8 µM) | relative viability ([2]; first compound 2.53 µM) | relative viability ([3]; first compound 0.08 µM) | relative viability ([3]; first compound 0.253 µM) | relative viability ([3]; first compound 0.8 µM) | relative viability ([3]; first compound 2.53 µM) | relative viability ([4]; first compound 0.08 µM) | relative viability ([4]; first compound 0.253 µM) | relative viability ([4]; first compound 0.8 µM) | relative viability ([4]; first compound 2.53 µM) | relative viability ([5]; first compound 0.08 µM) | relative viability ([5]; first compound 0.253 µM) | relative viability ([5]; first compound 0.8 µM) | relative viability ([5]; first compound 2.53 µM)
CAL-12T | 0.318 | 0.234 | 0.327 | 0.403 | 0.829 | 0.629 | 0.869 | 1 | 1.2 | 1.06 | 1.09 | 0.921 | 1.27 | 0.931 | 0.907 | 0.958 | 0.713 | 0.335 | 0.451 | 0.352
NCI-H2087 | 0.248 | 0.277 | 0.264 | 0.162 | 0.718 | 0.462 | 0.449 | 0.601 | 0.724 | 0.659 | 0.67 | 0.573 | 1.1 | 0.774 | 0.768 | 0.736 | 0.212 | 0.197 | 0.224 | 0.238
NCI-H661 | 0.36 | 0.346 | 0.351 | 0.336 | 0.772 | 0.669 | 0.709 | 0.584 | 1.03 | 0.861 | 0.955 | 0.884 | 0.931 | 0.997 | 1.06 | 1.14 | 0.411 | 0.394 | 0.396 | 0.381
LCLC-97TM1 | 0.229 | 0.171 | 0.182 | 0.188 | 0.563 | 0.304 | 0.397 | 0.396 | 0.182 | 0.17 | 0.136 | 0.167 | 1.26 | 0.573 | 0.531 | 0.366 | 0.196 | 0.154 | 0.177 | 0.178
NCI-H2228 | 0.236 | 0.207 | 0.227 | 0.156 | 0.73 | 0.517 | 0.434 | 0.322 | 0.365 | 0.315 | 0.361 | 0.226 | 1.19 | 1.12 | 0.847 | 0.659 | 1.09 | 0.75 | 0.472 | 0.307
201T | 0.998 | 0.913 | 1.02 | 0.781 | 0.88 | 0.763 | 0.512 | 0.747 | 0.347 | 0.322 | 0.279 | 0.331 | 1.15 | 1.07 | 1.05 | 1.09 | 0.419 | 0.364 | 0.342 | 0.366
NCI-H1915 | 0.455 | 0.431 | 0.402 | 0.404 | 0.823 | 0.62 | 0.543 | 0.553 | 0.468 | 0.471 | 0.454 | 0.448 | 1.04 | 0.904 | 0.83 | 0.88 | 0.506 | 0.47 | 0.437 | 0.481
BEN | 0.416 | 0.465 | 0.483 | 0.444 | 0.389 | 0.323 | 0.315 | 0.309 | 0.985 | 0.72 | 0.776 | 0.796 | 0.926 | 0.781 | 0.686 | 0.771 | 0.497 | 0.484 | 0.441 | 0.545
NCI-H2405 | 0.791 | 0.7 | 0.741 | 0.692 | 0.584 | 0.608 | 0.636 | 0.724 | 1.1 | 0.917 | 0.997 | 1.06 | 0.986 | 0.946 | 0.966 | 0.96 | 0.54 | 0.55 | 0.494 | 0.453
H3255 | 0.271 | 0.604 | 0.715 | 0.762 | 0.875 | 0.541 | 0.625 | 0.611 | 0.682 | 0.537 | 0.555 | 0.559 | 1.46 | 0.812 | 0.708 | 0.801 | 0.37 | 0.313 | 0.308 | 0.329
NCI-H460 | 0.384 | 0.393 | 0.12 | 0.277 | 1.12 | 0.72 | 0.598 | 0.549 | 0.0522 | 0.0522 | 0.0641 | 0.0646 | 1.19 | 1.07 | 1.06 | 0.255 | 0.305 | 0.187 | 0.158 | 0.16
NCI-H23 | 0.291 | 0.389 | 0.296 | 0.376 | 0.664 | 0.594 | 0.457 | 0.577 | 0.759 | 0.635 | 0.641 | 0.676 | 1.18 | 0.825 | 0.928 | 1.02 | 0.468 | 0.43 | 0.496 | 0.485
NCI-H1975 | 0.652 | 0.693 | 0.649 | 0.541 | 1 | 0.627 | 0.666 | 0.514 | 0.27 | 0.281 | 0.266 | 0.278 | 0.454 | 0.371 | 0.297 | 0.353 | 0.697 | 0.57 | 0.379 | 0.333
NCI-H650 | 0.713 | 0.667 | 0.623 | 0.696 | 0.578 | 0.496 | 0.483 | 0.502 | 1.02 | 0.956 | 0.958 | 0.936 | 1 | 0.765 | 0.635 | 0.655 | 0.321 | 0.311 | 0.304 | 0.369
A-427 | 0.191 | 0.212 | 0.204 | 0.216 | 0.59 | 0.377 | 0.403 | 0.461 | 1.17 | 0.897 | 0.954 | 1 | 1.12 | 0.962 | 0.876 | 0.97 | 0.593 | 0.492 | 0.474 | 0.524
